Source: US20100261699A1, “N-PYRAZOLE-2-PYRIDINE CARBOXAMIDE DERIVATIVE” (Banyu Pharmaceutical Co., Ltd., priority 2007, published 2010)

Molecular target: T1, recombinant human liver GK (Homo sapiens, UniProt P35557)
T1 construct: made in house; host or cells: E. coli
T1 sequence (P35557 1-466 isoform P35557-2): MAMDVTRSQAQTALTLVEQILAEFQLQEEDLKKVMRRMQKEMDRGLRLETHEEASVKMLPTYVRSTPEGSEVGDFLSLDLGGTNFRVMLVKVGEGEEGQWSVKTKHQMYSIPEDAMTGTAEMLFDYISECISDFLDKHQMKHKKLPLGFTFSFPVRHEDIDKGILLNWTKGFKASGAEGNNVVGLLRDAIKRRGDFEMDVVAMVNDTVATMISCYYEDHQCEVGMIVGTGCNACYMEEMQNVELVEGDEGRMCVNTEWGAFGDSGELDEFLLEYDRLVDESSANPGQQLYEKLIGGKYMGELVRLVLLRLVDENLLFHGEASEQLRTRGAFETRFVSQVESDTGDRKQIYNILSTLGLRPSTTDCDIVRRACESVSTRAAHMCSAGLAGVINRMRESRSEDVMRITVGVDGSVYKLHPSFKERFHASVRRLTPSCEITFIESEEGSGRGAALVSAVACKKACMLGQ
Assay: Glucokinase-activating effect (Thio-NADH production via G6PDH-coupled assay)
Type: biochemical
Details: final glucose concentration 2.5 mM, 30° C.; for Emax: OD level of DMSO control taken as 100%
Protocol: The excellent glucokinase-activating effect of the compound represented by the Formula (I) can be determined by a method described in references (e.g., Diabetes, Vol. 45, pp. 1671-1677, 1996, etc.) or by a method based on the same.
The glucokinase activity is determined not by directly measuring glucose-6-phosphate, but by measuring the level of Thio-NADH produced when a reporter enzyme, glucose-6-phosphate dehydrogenase, produces phosphogluconolactone from glucose-6-phosphate.
A recombinant human liver GK used in this assay was expressed in E. coli as a FLAG fusion protein, and then purified by ANTIFLAG M2 AFFIMTY GEL (Sigma).
The assay was carried out using a flat-bottom 96-well plate at 30° C. First, 69 μl of assay buffer (25 mM Hepes Buffer:pH=7.2, 2 mM MgCl2, 1 mM ATP, 0.5 mM TNAD, 1 mM dithiothreitol) was dispensed, and 1 μl of DMSO solution of the compound or DMSO as a control was added thereto. Subsequently, 20 μl of enzyme mixture (FLAG-GK, 20 U/ml G6PDH) that had been cooled in ice was dispensed, and 10 μl of 25 mM glucose, a substrate, was added thereto to initiate reaction (final glucose concentration=2.5 mM).
After the start of the reaction, an increase in the absorbance at 405 nm was measured for 12 minutes at 30 second intervals, and the increment for the first 5 minutes was used for evaluation of the compound. FLAG-GK was added so that the increment of absorbance in 5 minutes in the presence of 1% DMSO was from 0.04 to 0.06.
Taking the OD level of the DMSO control as 100%, the OD level of the test compound at different concentrations was determined From the OD level at each concentration, Emax (%) and EC50 (μM) were calculated and used as an index of the GK-activating ability of the compound.

| SMILES | Emax [%] | EC50 [nM] |
| --- | --- | --- |
| CN(C)CCOc1ccc(Sc2ccc(Sc3nncn3C)nc2C(=O)Nc2ccn(C)n2)cc1 [Example 1, 3-({4-[2-(dimethylamino)ethoxy]phenyl}thio)-N-(1-methyl-1H-pyrazol-3-yl)-6-[(4-methyl-4H-1,2,4-triazol-3-yl)thio]pyridine-2-carboxamide] | 890 | 120 |
| CCN(CC)CCOc1ccc(Sc2ccc(Sc3nncn3C)nc2C(=O)Nc2ccn(C)n2)cc1 [Example 2] | – | 200 |
| Cn1ccc(NC(=O)c2nc(Sc3nncn3C)ccc2Sc2ccc(OCCN3CCCC3)cc2)n1 [Example 3] | – | 80 |
| CC(C)N1CC(COc2ccc(Sc3ccc(Sc4nncn4C)nc3C(=O)Nc3ccn(C)n3)cc2)C1 [Example 8, 3-({4-[(1-isopropylazetidin-3-yl)methoxy]phenyl}thio)-N-(1-methyl-1H-pyrazol-3-yl)-6-[(4-methyl-4H-1,2,4-triazol-3-yl)thio]pyridine-2-carboxamide] | 960 | 80 |
| CN(C)CCOc1ccc(Sc2ccc(Sc3nncn3C)nc2C(=O)Nc2ccn(C)n2)cn1 [Example 9] | 880 | 180 |

Results, then the compound that gave them:

| Emax [%] | EC50 [nM] | SMILES |
| --- | --- | --- |
| – | 70 | CN1CC(Oc2ccc(Sc3ccc(Sc4nncn4C)nc3C(=O)Nc3ccn(C)n3)cc2)C1 [Example 4, 3-({4-[(1-methylazetidin-3-yl)oxy]phenyl}thio)-N-(1-methyl-1H-pyrazol-3-yl)-6-[(4-methyl-4H-1,2,4-triazol-3-yl)thio]pyridine-2-carboxamide] |
| – | 120 | CCN1CC(Oc2ccc(Sc3ccc(Sc4nncn4C)nc3C(=O)Nc3ccn(C)n3)cc2)C1 [Example 5] |
| – | 150 | CC(C)N1CC(Oc2ccc(Sc3ccc(Sc4nncn4C)nc3C(=O)Nc3ccn(C)n3)cc2)C1 [Example 6] |
| 930 | 60 | CCN1CC(COc2ccc(Sc3ccc(Sc4nncn4C)nc3C(=O)Nc3ccn(C)n3)cc2)C1 [Example 7, 3-({4-[(1-ethylazetidin-3-yl)methoxy]phenyl}thio)-N-(1-methyl-1H-pyrazol-3-yl)-6-[(4-methyl-4H-1,2,4-triazol-3-yl)thio]pyridine-2-carboxamide] |
